IC50 data for 13 molecules are collected here from patent publication US9718782B2, “TrkA kinase inhibitors, compositions and methods thereof” (MERCK SHARP & DOHME CORP, priority 2013, dated 2017).

The assay concerns the target T1, TrkA receptor (Homo sapiens, UniProt P04629).
T1 construct: host or cells: U2OS (PathHunter, 'TrkA p75' cells)
The assay can be described thus: DiscoverX PathHunter TrkA functional assay (NGF-stimulated U2OS cells). The class given is cell-based. Particulars: U2OS cells expressing TrkA-Prolink fusion and Shc1-EA; compound 1 hour, then EC80 NGF 3 hours; luminescence. The protocol:
TrkA functional activity was measured using a DiscoverX PathHunter assay. In this assay, U2OS cells are express TrkA receptor as a fusion with the weakly complementing fragment of B-galactosidase, which DiscoverX calls “Prolink (PK)”; additionally, Shcl is fused with a larger fragment, which is called “Enzyme Acceptor (EA)”. Activation of the TrkA receptor, upon NGF addition, results in the kinase domain being phosphorylated, resulting in subsequent recruitment of Shcl-EA protein. That recruitment results in an active B-galactosidase enzyme that is detected by addition of a chemiluminescent substrate.
All reagents were purchased from DiscoverX, except for the receptor agonists (NGF, BDNF, NT3) which were purchased from Peprotech. Cells were expanded and frozen into cryovials (TrkA p75 @passage 13, 1.5×10^7 cells/vial; TrkC p75 @passage 11, 1.5×10^7 cells/vial in InVitrogen Recovery Cell Freezing media), and stored in the vapor phase of liquid nitrogen, and thawed immediately before use. Thawed cells were added to a 384-well plate (BD Falcon 384-well white/clear, TC surface 120 uL assay plates (353963), 20 uL of 0.375e6 cells/mL=>7500 cells/well), and allowed to incubate overnight. Compound (10 mM starting dose: 202.5 nL compound yielding 0.81% DMSO final in total assay volume and starting doses 81 uM) was added the following morning and allowed to incubate on cells for 1 hour. Then, 5 uL EC80 of agonist (NGF for TrkA; BDNF for TrkB; NT3 for TrkC) was added and allowed to incubate for 3 hours at room temperature. DiscoverX PathHunter detection reagent is added (12 uL to plate and components diluted in parts as per kit instructions) and the plate is further incubated for 1 hour in the dark. The plate is read via luminescence on the Perkin Elmer Envision.

T1 sequence (P04629 33-796): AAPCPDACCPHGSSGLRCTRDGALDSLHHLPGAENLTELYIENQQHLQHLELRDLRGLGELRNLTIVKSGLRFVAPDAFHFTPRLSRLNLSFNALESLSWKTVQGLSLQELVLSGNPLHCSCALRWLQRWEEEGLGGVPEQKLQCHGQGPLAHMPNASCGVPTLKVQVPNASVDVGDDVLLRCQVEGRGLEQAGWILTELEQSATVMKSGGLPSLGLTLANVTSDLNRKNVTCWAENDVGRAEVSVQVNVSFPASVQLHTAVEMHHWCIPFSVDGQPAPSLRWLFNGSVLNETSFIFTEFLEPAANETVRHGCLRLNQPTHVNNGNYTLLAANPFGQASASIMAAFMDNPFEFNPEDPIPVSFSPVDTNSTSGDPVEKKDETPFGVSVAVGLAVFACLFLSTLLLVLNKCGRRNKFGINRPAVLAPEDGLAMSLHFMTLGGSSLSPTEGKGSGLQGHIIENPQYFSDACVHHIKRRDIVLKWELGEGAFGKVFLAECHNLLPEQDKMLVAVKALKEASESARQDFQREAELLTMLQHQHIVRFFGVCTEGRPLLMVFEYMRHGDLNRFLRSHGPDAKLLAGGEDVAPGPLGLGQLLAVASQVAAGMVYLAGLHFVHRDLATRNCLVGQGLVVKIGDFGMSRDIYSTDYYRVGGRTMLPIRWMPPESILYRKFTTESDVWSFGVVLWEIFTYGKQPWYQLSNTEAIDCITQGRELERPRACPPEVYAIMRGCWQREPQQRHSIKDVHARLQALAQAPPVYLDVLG

In the case of `Cc1nnc(-c2cccc(NC(=O)NC3c4ccccc4-c4ccccc43)c2)o1` [Compound 46, 1-(9H-fluoren-9-yl)-3-[3-(5-methyl-1,3,4-oxadiazol-2-yl)phenyl]urea], the IC50 is 660 nM. This counts as sub-micromolar. `O=C(Nc1cc(F)cnc1-c1ccccc1)NC1c2ccccc2-c2ccccc21` [Compound 84, 1-(9H-fluoren-9-yl)-3-(5-fluoro-2-phenylpyridin-3-yl)urea] showed an IC50 of 47 nM. This IC50 is about 14-fold lower than that of the molecule before. The molecule `Cc1nc(-c2ccccc2)c(NC(=O)NC2c3ccccc3-c3ccccc32)s1` [Compound 2, 1-(9H-fluoren-9-yl)-3-(2-methyl-4-phenyl-1,3-thiazol-5-yl)urea] displayed an IC50 of 140 nM. Molecule `Cc1ncc(NC(=O)NC2c3ccccc3-c3ccccc32)c(-c2ccc(F)cc2)n1` [Compound 28, 1-(9H-fluoren-9-yl)-3-[4-(4-fluorophenyl)-2-methylpyrimidin-5-yl]urea] yielded an IC50 of 150 nM.

As for `Cc1ccccc1-c1ncccc1NC(=O)NC1c2ccccc2-c2ccccc21` [Compound 77, 1-(9H-fluoren-9-yl)-3-[2-(2-methylphenyl)pyridin-3-yl]urea], the IC50 is 1200 nM. For `O=C(Nc1cccc(-c2nnco2)c1)NC1c2ccccc2-c2ccccc21` [Compound 49, 1-(9H-fluoren-9-yl)-3-[3-(1,3,4-oxadiazol-2-yl)phenyl]urea] the value was 2800 nM. The same measure for `O=C(Nc1cccc(-c2nnc3n2CCC3)c1)NC1c2ccccc2-c2ccccc21` [Compound 43, 1-[3-(6,7-dihydro-5H-pyrrolo[2,1-c] [1,2,4]triazol-3-yl)phenyl]-3-(9H-fluoren-9-yl)urea]: 130 nM; for `Cc1nc(-c2ccccc2)c(NC(=O)NC2c3ccccc3-c3ccccc32)[nH]1` [Compound 59, 1-(9H-fluoren-9-yl)-3-(2-methyl-4-phenyl-1H-imidazol-5-yl)urea]: 500 nM; for `CC(C)(C)c1cc(NC(=O)NC2c3ccccc3-c3ccccc32)n(-c2ccc(F)cc2)n1` [Compound 20, 1-[3-tert-butyl-1-(4-fluorophenyl)-1H-pyrazol-5-yl]-3-(9H-fluoren-9-yl)urea]: 190 nM. For `Cn1nnc(-c2cccc(NC(=O)NC3c4ccccc4-c4ccccc43)c2)n1` [Compound 32, 1-(9H-fluoren-9-yl)-3-[3-(2-methyl-2H-tetrazol-5-yl)phenyl]urea] the value was 1200 nM; for `O=C(Nc1cccnc1-c1ccccc1F)NC1c2ccccc2-c2ccccc21` [Compound 76, 1-(9H-fluoren-9-yl)-3-[2-(2-fluorophenyl)pyridin-3-yl]urea], 320 nM. In turn, `CCn1cnnc1-c1cccc(NC(=O)NC2c3ccccc3-c3ccccc32)c1` [Compound 44, 1-[3-(4-ethyl-4H-1,2,4-triazol-3-yl)phenyl]-3-(9H-fluoren-9-yl)urea] gave an IC50 of 410 nM. Take `Cc1ncc(NC(=O)NC2c3ccccc3Oc3ccccc32)c(-c2ccccc2)n1` [Compound 3, 1-(2-methyl-4-phenylpyrimidin-5-yl)-3-(9H-xanthen-9-yl)urea]: the midpoint of inhibition, the IC50, lay at 61 nM.

For orientation: IC50 means the concentration needed to halve the response being measured. Read a low IC50 as higher potency.
